Source: patent US10196668B2, “Reagents and methods for screening MPS I, II, IIIA, IIIB, IVA, VI, and VII” (University of Washington through its Center for …, priority 2013, dated 2019)
Counter-ions that a name gives are not always drawn. Values belong to the compound of their own block, whether it stands above or below them.

What was measured:
[1] = molecular target: T1, iduronate-2-sulfatase (MPS-II enzyme) (Homo sapiens, UniProt P22304); assay: MPS-II enzyme assay with dried blood spot punch, tandem mass spectrometry; assay type: biochemical
T1 construct: from tissue; host or cells: dried blood spot (3 mm punch)
T1 sequence (P22304 34-550): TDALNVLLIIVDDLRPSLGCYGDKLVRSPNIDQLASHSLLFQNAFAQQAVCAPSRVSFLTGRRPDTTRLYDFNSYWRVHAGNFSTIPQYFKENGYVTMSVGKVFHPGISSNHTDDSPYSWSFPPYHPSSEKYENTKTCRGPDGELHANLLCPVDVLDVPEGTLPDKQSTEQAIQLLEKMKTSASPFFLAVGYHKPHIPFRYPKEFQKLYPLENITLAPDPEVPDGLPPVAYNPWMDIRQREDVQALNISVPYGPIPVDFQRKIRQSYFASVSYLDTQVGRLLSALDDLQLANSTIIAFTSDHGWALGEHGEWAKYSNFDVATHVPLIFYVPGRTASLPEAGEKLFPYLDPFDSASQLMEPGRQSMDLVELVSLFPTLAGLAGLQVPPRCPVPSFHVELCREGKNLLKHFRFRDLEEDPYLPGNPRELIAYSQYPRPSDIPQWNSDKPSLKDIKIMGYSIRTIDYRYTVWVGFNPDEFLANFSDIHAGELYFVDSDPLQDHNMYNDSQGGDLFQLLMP
Description: The original and alternative MPS-II substrates were compared in side-by-side enzyme assays as follows: 1 mM substrate, 5 uM internal standard in 30 uL of buffer (100 mM ammonium formate, pH 4.0, 7.5 mM barium(II) acetate, 5.0 mM cerium(III) acetate). A 3 mm punch of a dried blood spot was added, and the mixtures were incubated with shaking for 16 hours at 37 deg C. The reactions were quenched by addition of 200 uL of 44 mM citric acid followed by addition of 400 uL ethyl acetate and 100 uL of water. After mixing up and down a few times with the pipet, the samples were centrifuged (10 min at 3000 rpm) to separate the liquid layers. A 200 uL portion of the upper ethyl acetate layer was transferred to a new well, and solvent was removed by evaporation with a stream of oil-free air. The residue was taken up in 100 uL of methanol/5 mM aqueous ammonium formate (80/20, v/v) and infused into the tandem mass spectrometer. The barium and cerium salts are present to precipitate free sulfate and phosphate present in the dried blood spot since these anions cause production inhibition of the MPS-II enzyme. The citric acid is used to acidify the mixture so that the carboxylate of the iduronic acid portion of the MPS-II product and internal standard is protonated and is extracted into ethyl acetate. […]

[2] = molecular target: T2, alpha-L-iduronidase (MPS-I enzyme) (Homo sapiens, UniProt P35475); assay: MPS-I enzyme assay with dried blood spot punch, LC/MSMS; assay type: biochemical
T2 construct: from tissue; host or cells: dried blood spot (3 mm punch)
T2 sequence (P35475 28-653): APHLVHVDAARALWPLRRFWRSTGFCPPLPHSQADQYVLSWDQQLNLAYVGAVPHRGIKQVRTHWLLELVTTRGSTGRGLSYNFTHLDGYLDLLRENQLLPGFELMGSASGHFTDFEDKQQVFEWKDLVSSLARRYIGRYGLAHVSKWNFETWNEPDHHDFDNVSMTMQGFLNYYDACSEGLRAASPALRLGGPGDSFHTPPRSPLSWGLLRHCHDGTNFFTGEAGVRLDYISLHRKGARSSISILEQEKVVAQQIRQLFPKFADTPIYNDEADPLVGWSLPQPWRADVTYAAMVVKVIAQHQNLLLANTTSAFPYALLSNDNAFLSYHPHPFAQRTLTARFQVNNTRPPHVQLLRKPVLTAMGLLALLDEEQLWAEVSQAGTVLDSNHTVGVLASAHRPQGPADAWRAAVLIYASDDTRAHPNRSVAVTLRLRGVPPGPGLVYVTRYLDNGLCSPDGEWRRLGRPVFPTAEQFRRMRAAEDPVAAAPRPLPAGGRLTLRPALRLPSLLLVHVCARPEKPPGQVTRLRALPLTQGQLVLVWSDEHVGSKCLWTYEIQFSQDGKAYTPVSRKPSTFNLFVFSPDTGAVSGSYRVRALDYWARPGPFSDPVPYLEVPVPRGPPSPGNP
Description: The original and alternative MPS-I substrates were compared in side-by-side enzyme assays as follows: 0.5 mM substrate, 3.5 uM internal standard in 30 uL of buffer (100 mM ammonium formate, pH 4.0). A 3 mm punch of a dried blood spot was added, and the mixtures were incubated with shaking for 16 hours at 37 deg C. The reactions were quenched by addition 120 uL of acetonitrile. The wells were centrifuged, and 120 uL of supernatant was transferred to a new well. The sample was diluted by addition of 120 uL of water, and 10 uL was injected onto the LC/MSMS system. The LC and MS/MS conditions are as published (Spacil, Z., Tatipaka, H., Barcenas, M., Scott, C. R., Turecek, F., Gelb, M. H. (2012) “High-Throughput Assay of 9 Lysosomal Enzymes for Newborn Screening.” Clinical Chemistry., 59 (3), […]). A blank assay is also carried out in which a blood-free 3 mm punch of filter paper is substituted for the dried blood spot. The blank is incubated and processed as above.

[3] = system: N-acetylgalactosamine-6-sulfatase (GALNS); assay: GALNS (MPS-IVA) assay with beta-NGA and Z-PUG-NAc, UHPLC-MS/MS; assay type: biochemical, human
Description: (§1) Experiment 1. A 3 mm punch of a dried blood spot from a random newborn is incubated with 0.03 mL of assay cocktail consisting of 1 mM GALNS substrate in 50 mM ammonium formate pH 4.0 containing 7.5 mM barium acetate, 5.0 mM cerium acetate, 1 mM Z-PUG-NAc, and 0.01 mg of bacterial beta-N-acetylgalactosaminidase. The mixture also contains 0.005 mM internal standard. After 16 hrs at 37° C. with shaking, the mixture is quenched with 0.12 mL of acetonitrile and the sample plate is centrifuged to pellet the precipitate. Supernatant (0.12 mL) is transferred to a new plate, and 0.12 mL of water is added. The plate is placed on the autosampler of the UHPLC-MS/MS instrument (Waters Xevo TQ MS/MS with a Waters Acquity UHPLC system). A portion of the sample (0.01 mL) is injected, and the GALNS product (substrate minus sulfate), the internal standard, and the aglycones derived from the GALNS product and internal standard are quantified by multiple reaction monitoring (MS/MS). Note the internal standard added, like the GALNS product, is converted to its aglycone by the addition of bacterial beta-N-acetylgalactosaminidase.
(§2) Experiment 2. Experiment 2 is the same as Experiment 1 but uses a punch of filter paper (no blood). Most of the internal standard is converted to the aglycone showing that the added beta-NGA is working. The amount of aglycone is only 42,000, about 10-fold lower than that seen in the presence of blood. […] Furthermore when a dried blood spot from a confirmed Morquio A patient is used, the amount of aglycone is similar to that seen in the absence of blood (45,000) showing that the assay is working to detect only the GALNS present in blood from a non-affected individual.
(§3) Experiment 3. […] As expected, most of the internal standard is not converted to its aglycone, because is no beta-NAG and any hexosaminidase A coming from the blood is blocked by Z-PUG-NAc. The amount of GALNS product is 121,000 and the amount of aglycone is 42,900.
(§4) Experiment 4. Experiment 4 is the same as Experiment 3, but without blood. […] Thus, most of the 121,000 product counts in Experiment 3 is due to GALNS. The product counts in Experiment 3 cannot be due to hexosaminidase A, because only beta-NGA generates the aglycone. The amount of aglycone in Experiments 3 and 4 are similar, and this represents aglycone present in the GALNS substrate as a contaminant.
(§5) Experiment 5. […] Most of the internal standard is converted to its aglycone as expected because beta-NGA is present. The signal for aglycone is 1,350,000, much larger than in Experiment 1.
(§6) Experiment 6. Experiment 6 contains blood but no beta-NGA and no Z-PUG-NAc. The amount of GALNS product is 110,000 instead of 25,100 as in Experiment 5, which is due to the action of GALNS on the GALNS substrate. Because beta-NGA is absent, only a small amount of GALNS product is converted to aglycone, but the amount of aglycone remains high at 1,110,000. This is because of the action of hexosaminidase A in the blood on GALNS substrate in the absence of Z-PUG-NAc.
(§7) Experiments 7 and 8. Experiments 7 and 8 are with filter paper (no blood). […] As expected, most of the internal standard is converted to aglycone in Experiment 7, but not in Experiment 8. […] These can be removed by a further round of purification of GALNS substrate.

[4] = molecular target: T3, N-acetylgalactosamine-6-sulfatase (GALNS) (Homo sapiens, UniProt P34059); assay: as above; assay type: biochemical
T3 construct: Representative assays use dried blood spots on newborn screening cards as a source of GALNS; from tissue; host or cells: dried blood spot from a random newborn (3 mm punch)
T3 sequence (P34059 27-522): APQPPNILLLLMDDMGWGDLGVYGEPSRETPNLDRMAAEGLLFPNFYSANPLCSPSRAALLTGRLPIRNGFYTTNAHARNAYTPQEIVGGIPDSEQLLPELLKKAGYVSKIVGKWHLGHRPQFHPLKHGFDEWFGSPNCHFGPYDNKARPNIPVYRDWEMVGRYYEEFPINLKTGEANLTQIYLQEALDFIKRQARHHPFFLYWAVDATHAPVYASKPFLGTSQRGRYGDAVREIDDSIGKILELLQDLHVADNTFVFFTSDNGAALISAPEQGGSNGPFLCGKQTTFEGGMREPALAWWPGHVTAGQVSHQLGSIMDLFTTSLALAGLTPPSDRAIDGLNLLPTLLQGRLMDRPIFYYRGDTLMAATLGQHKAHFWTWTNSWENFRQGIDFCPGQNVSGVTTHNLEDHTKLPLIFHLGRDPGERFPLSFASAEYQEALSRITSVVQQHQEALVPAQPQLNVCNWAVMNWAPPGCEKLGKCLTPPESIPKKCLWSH
Description: as §1, §2, §3, §4, §5, §6, §7

[5] = activity with dried blood spot punch to that with blood-free punch
[6] = Expt. 1: 3 mm dried blood spot punch, 1 mM Z-PUG-NAc, 0.01 mg beta-NGA
[7] = Expt. 2: 3 mm filter paper punch (no blood), 1 mM Z-PUG-NAc, 0.01 mg of bacterial enzyme
[8] = Expt. 3: 3 mm dried blood spot punch, 1 mM Z-PUG-NAc, no beta-NGA
[9] = Expt. 4: 3 mm filter paper punch (no blood), 1 mM Z-PUG-NAc, no beta-NGA
[10] = Expt. 5: 3 mm dried blood spot punch, 0.01 mg beta-NGA, no Z-PUG-NAc
[11] = Expt. 6: 3 mm dried blood spot punch, Nothing added (no beta-NGA, no Z-PUG-NAc)
[12] = Expt. 7: 3 mm filter paper punch (no blood), 0.01 mg beta-NGA, no Z-PUG-NAc
[13] = Expt. 8: 3 mm filter paper punch (no blood), Nothing added

Enzymatic Activity ([1]; 1 mM substrate, 3 mm dried blood spot punch, pH 4.0, 16 hours at 37 deg C): 6 umole/hr/L blood
blood-no blood assay ratio [1, 5]: 53
SMILES: CCCCC(=O)N(CCCCCCNC(=O)c1ccccc1)CCC(=O)Nc1ccc(OC2OC(C(=O)O)C(O)C(O)C2OS(=O)(=O)O)cc1 (stereo not shown) [Alternative MPS-II]

Enzymatic Activity ([2]; 0.5 mM substrate, 3 mm dried blood spot punch, pH 4.0, 16 hours at 37 deg C): 2.5 umole/hr/L blood
blood-no blood assay ratio [2, 5]: 34
SMILES: CC(=O)N(CCCCCCNC(=O)c1ccccc1)CCC(=O)Nc1ccc(OC2OC(C(=O)O)C(O)C(O)C2O)cc1 (stereo not shown) [Alternative MPS-I]

GALNS internal standard peak area [3, 6]: 278
internal standard aglycone peak area [3, 6]: 54,400
GALNS internal standard peak area [3, 7]: 3,290
internal standard aglycone peak area [3, 7]: 15,900
GALNS internal standard peak area [3, 8]: 23,500
internal standard aglycone peak area [3, 8]: 940
GALNS internal standard peak area [3, 9]: 14,700
internal standard aglycone peak area [3, 9]: 412
GALNS internal standard peak area [3, 10]: 852
internal standard aglycone peak area [3, 10]: 49,200
GALNS internal standard peak area [3, 11]: 17,900
internal standard aglycone peak area [3, 11]: 17,100
GALNS internal standard peak area [3, 12]: 1,920
internal standard aglycone peak area [3, 12]: 22,200
GALNS internal standard peak area [3, 13]: 12,100
internal standard aglycone peak area [3, 13]: 648
SMILES: [2H]c1c([2H])c([2H])c(C(=O)NCCCCCN(CCC(=O)Nc2ccc(OC3OC(CO)C(O)C(O)C3NC(C)=O)cc2)C(=O)CCCC)c([2H])c1[2H] (stereo not shown) [GALNS internal standard]

SMILES: CCCCC(=O)N(CCCCCNC(=O)c1ccccc1)CCC(=O)Nc1ccc(OC2OC(COS(=O)(=O)O)C(O)C(O)C2NC(C)=O)cc1 [GALNS substrate, Sodium ((2R,3R,4R,5R,6S)-5-acetamido-6(4(3(N (5-benzamidopentyl)-pentanamido)propanamido)phenoxy)-3,4-dihydroxytetrahydro-2H-pyran-2-yl)methyl sulfate]
GALNS product (substrate without sulfate) peak area [4, 6]: 46,100
aglycone peak area (product without sugar) [4, 6]: 411,000
GALNS product (substrate without sulfate) peak area [4, 8]: 121,000
GALNS product (substrate without sulfate) peak area [4, 10]: 25,100
GALNS product (substrate without sulfate) peak area [4, 11]: 110,000
GALNS product (substrate without sulfate) peak area [3, 7]: 422
aglycone peak area (product without sugar) [3, 7]: 42,000
aglycone peak area (product without sugar) [3, 8]: 42,900
GALNS product (substrate without sulfate) peak area [3, 9]: 753
aglycone peak area (product without sugar) [3, 9]: 22,700
aglycone peak area (product without sugar) [3, 10]: 1,350,000
aglycone peak area (product without sugar) [3, 11]: 1,110,000
GALNS product (substrate without sulfate) peak area [3, 12]: 253
aglycone peak area (product without sugar) [3, 12]: 19,800
GALNS product (substrate without sulfate) peak area [3, 13]: 820
aglycone peak area (product without sugar) [3, 13]: 14,500
amount of aglycone (peak area) ([3]; dried blood spot from a confirmed Morquio A patient, 1 mM Z-PUG-NAc, 0.01 mg beta-NGA): 45,000
